From article doi:10.1101/620765v2 (biorxiv, 2019)
Read-outs that look alike come from different tables or passages of the source.

Assays:
[1] = molecular target: T1, human αVβ3 expressed in HEK-293 cells (HEK-αVβ3) (Homo sapiens, UniProt P05106+P06756); experiment: exposure of mAb AP5; type: cell-based
[2] = molecular target: T1, human αVβ3 expressed in HEK-293 cells (HEK-αVβ3); experiment: inhibition of HEK-αVβ[…] cell adhesion to immobilized fibrinogen; type: cell-based
[3] = molecular target: T2, purified αVβ5 (R&D Systems) (Homo sapiens, UniProt P06756+P18084); experiment: inhibition of binding of purified αVβ[…] to immobilized vitronectin, plate assay
[4] = molecular target: purified human αVβ3 (R&D Systems) (Homo sapiens, UniProt P05106+P06756); experiment: biochemical
[5] = molecular target: T1, human αVβ3 expressed in HEK-293 cells (HEK-αVβ3); experiment: inhibition of HEK-αVβ[…] cell adhesion to fibronectin; type: cell-based
[6] = molecular target: T1, human αVβ3 expressed in HEK-293 cells (HEK-αVβ3); experiment: cell-based; parameters: species or system HEK-293 expressing human αVβ3
[7] = molecular target: T2, purified αVβ5 (R&D Systems); conditions: read-out: IC50 (μM) purified αVβ5 binding to vitronectin; antagonist

Row | EC50 [1] [µM] | IC50 [2] [µM] | further results | Compound
1 | 0.012 | 0.003 | – | COc1ccc(C(CC(=O)O)N2CCN(CCCc3ccc4c(n3)NCCC4)C2=O)cn1 (racemic) [A, TDI-806]
2 | – | – | IC50 [3]: 0.875 ± 0.348 µM; IC50 [4]: 0.049 ± 0.05 µM; IC50 [5]: 0.079 ± 0.01 µM; IC50 [6]: 0.172 ± 0.066 µM | O=C(CCCCc1ccc2c(n1)NCCC2)NCCC(Nc1nc2ccccc2o1)C(=O)O (racemic) [E, TDI-3761]
3 | – | 0.049 ± 0.016 | – | O=C(CCCCc1ccc2c(n1)NCCC2)NCCC(NC(=O)c1nc2ccccc2s1)C(=O)O (racemic) [F, TDI-3909]
4 | – | – | IC50 ([4]; read-out: IC50 (μM) purified αVβ3 binding to penton base, antagonist): 0.011 ± 0.005 µM; IC50 [7]: 0.035 ± 0.019 µM | COc1ccc(C(CC(=O)O)N2CCN(CCCc3ccc4c(n3)NCCC4)C2=O)cn1 (racemic) [MK-429 racemate]
5 | > 10 | 0.756 ± 0.607 | – | O=C(O)CCNC(=O)CCCCc1ccc2c(n1)NCCC2 [C, TDI-1367]
6 | > 10 | 1.02 | – | O=C(O)CCCNC(=O)CCCCc1ccc2c(n1)NCCC2 [D, TDI-2668]
7 | – | – | IC50 [3]: 0.689 ± 0.374 µM; IC50 [4]: 0.012 ± 0.005 µM; IC50 [5]: 0.042 ± 0.021 µM | O=C(CCCCc1ccc2c(n1)NCCC2)NCC[C@H](NC(=O)c1nc2ccccc2s1)C(=O)O [G, TDI-4161]
8 | > 10 | 0.123 ± 0.055 | – | O=C(CCCCc1ccc2c(n1)NCCC2)NCC[C@@H](Nc1nc2ccccc2o1)C(=O)O [TDI-4158]
9 | > 10 | – | IC50 ([2]; 1 mM Mg2+, 2 mM Ca2+, pH 7.4, room temperature): 0.185 ± 0.042 µM | O=C(CCCCc1ccc2c(n1)NCCC2)NCC[C@H](Nc1nc2ccccc2o1)C(=O)O [TDI-4160]
